One molecule from patent US10053485B2, “Cytotoxic agents that preferentially target leukemia inhibitory factor (LIF) for the treatment of malignancies and as new contraceptive agents” (Evestra, Inc., priority 2015, dated 2018) can be followed below.

Assay [1] relates to RXF 393. Description: NCI-60 screen, Renal Cancer panel. The class given is cell-based. The conditions noted are these: Homo sapiens, RXF 393, 48 h.
Assay [2] deals with SW-620. The assay can be described thus: NCI-60 screen, Colon Cancer panel. In kind it is cell-based. The conditions noted are these: Homo sapiens, SW-620, 48 h.
For assay [3], the system named is U251 (Glioma). Description: Short term (72 h) cytotoxicity assay. The class given is cell-based, human. Particulars: Homo sapiens, U-251; U251, 72 h cytotoxicity.
For assay [4], the system named is human endometrial stromal cells (HESC). The assay can be described thus: Decidualization assay, actin cytoskeleton by phalloidin staining. In kind it is cell-based. The conditions noted are these: FIG. 3. As for the experimental part: Decidualization studies: The above compounds were investigated originally for the treatment of endometriosis. The compounds were tested in a decidualization assay using human endometrial stromal fibroblast (HESC) cells. In preparation for the possibility of embryonic attachment, the stromal cells in the endometrium undergo extensive waves of proliferation, remodeling, and terminal differentiation that transforms the endometrium into an endocrine gland, called decidua. This transformation is called decidualization and it is under the control by ovarian hormones.
The level of apoptosis increases from the proliferative phase through menstrual cycle and peaks at menses. […] However if the cells are subjected to conditions that induce decidualization, stromal cells will begin to differentiate instead of undergoing apoptosis.
Briefly, human stromal endometrial cells were plated in the presence and absence of progesterone and allow undergoing decidualization. The cells treated with test compounds of different concentrations and stained for actin cytocketal morphology using phalloidin staining and monitored under fluorescent microscope.

Assay [5] deals with HCC-2998. The assay can be described thus: NCI-60 screen, Colon Cancer panel. The class given is cell-based. Particulars: Homo sapiens, HCC 2998, 48 h.
Assay [6] concerns IGROV1 (Ovarian) Xenograft. The assay can be described thus: Tumor xenograft study, IGROV1. In kind it is in vivo, mice. As for the experimental part: Uniform suspensions of human breast cancer MDA-MB-231 and human ovarian cancer IGROV1 cells (2×10^6) in 100 μL (0.02 carboxymethyl cellulose in phosphate buffered saline) were injected subcutaneously into the right and left flanks of 4- to 5-week-old female athymic nude mice (Charles River Laboratories). After 10 days, when the tumor […] reaches 100 mm^3, the mice were randomly allocated to 3 groups of each containing 6 animals. […] All drug was suspended in PBS followed by sonication (15 seconds with an intermittent interval of 5 seconds) for 1 minute. Tumors were allowed to reach palpability before drug intervention. Tumor size was measured every 3 days using digital Vernier Calipers and tumor volume was calculated using the ellipsoid formula [D×(d2)]/2, where D is the large diameter of the tumor and d represents the small diameter. On day 31, the mice were euthanized and tumors were harvested for protein and gene expression studies. […] FIG. 6B depicts a graph of tumor volume vs. time for the administration of EC300 at 2.5 mg/kg twice weekly in the MDA-MB-231 (TNBC) Xenograft. […] FIG. 7 depicts a graph of tumor volume vs. time for the administration of EC300 at 5 mg/kg 5 days per week in the IGROV1 (Ovarian) Xenograft. […] STAT3 phosphorylation is reduced in tumors that underwent treatment compared to control which is an indication of LIF downstream target.

The test system of assay [7] is IGROV1. The assay can be described thus: NCI-60 screen, Ovarian Cancer panel. The class given is cell-based. The conditions noted are these: Homo sapiens, IGROV-1; IGROV1, 48 h, SRB; read-out: GI50 (log10GI50) (converted). As for the experimental part: Additional four, 10-fold or ½ log serial dilutions are made to provide a total of five drug concentrations plus control.
For adherent cells, the assay is terminated by the addition of cold TCA. Cells are fixed in situ by the gentle addition of 50 μl of cold 50% (w/v) TCA (final concentration, 10% TCA) and incubated for 60 minutes at 4° C. The supernatant is discarded, and the plates are washed five times with tap water and air dried. Sulforhodamine B (SRB) solution (100 μl) at 0.4% (w/v) in 1% acetic acid is added to each well, and plates are incubated for 10 minutes at room temperature. After staining, unbound dye is removed by washing five times with 1% acetic acid and the plates are air dried. […] Using the seven absorbance measurements [time zero, (Tz), control growth, (C), and test growth in the presence of drug at the five concentration levels (Ti)], the percentage growth is calculated at each of the drug concentrations levels.
Three dose response parameters are calculated for each experimental agent. […] The drug concentration resulting in total growth inhibition (TGI) is calculated from Ti=Tz. […] Values are calculated for each of these three parameters if the level of activity is reached; however, if the effect is not reached or is exceeded, the value for that parameter is expressed as greater or less than the maximum or minimum concentration tested.

Assay [8] has as its system A549/ATCC. The assay can be described thus: NCI-60 screen, Non-Small Cell Lung Cancer panel. In kind it is cell-based. Particulars: Homo sapiens, A549, 48 h.
Assay [9] deals with Patient derived tumor (melanoma): p53, LIF, MDM2, pSTAT3, Ki67. The assay can be described thus: Immunohistochemistry analysis of patient derived tumor. The class given is cell-based, human. Particulars: 10 nM and 1 uM for 5 days, FIG. 10. As for the experimental part:
Patient derived tumor (melanoma) was treated with the compounds at 10 nM and 1 uM for 5 days in RPMI medium and harvested on day 6 using established protocol and immunohistochemistry was performed for different antibodies including p53, LIF, MDM2, pSTAT3, Ki67.

Assay [10] relates to LIF-overexpressing MCF-7 (MCF-7 LIF) human breast cancer cells. The assay can be described thus: LIF specificity assay, LIF-overexpressing cells. In kind it is cell-based.
In assay [11] the test system is SF-268. Description: NCI-60 screen, CNS Cancer panel. In kind it is cell-based. The conditions noted are these: Homo sapiens, SF-268, 48 h.
Setting [12] is: read-out: GI50 (log10GI50) (converted).
Setting [13] is: read-out: LC50 (log10LC50) (converted).

Regarding `C#CC(F)(F)[C@]1(O)CCC2C3CCC4=CC(=O)CCC4=C3C(c3ccc(C4CC4)cc3)C[C@@]21C` (stereo partly drawn) [EC330, 17α-(1,1-difluoro-2-propyn-1-yl)-17β-hydroxy-11β-[4-p-(cyclopropyl)phenyl]estra-4,9-dien-3-one], the concentration for 50% growth inhibition (GI50) was 1.07 µM in assay [1] (setting [12]); 2.51 µM in assay [2] (setting [12]); 2.95 µM in assay [5] (setting [12]); less than 0.01 µM in assay [7]; 2.45 µM in assay [8] (setting [12]); 0.126 µM in assay [11] (setting [12]). Further, the CC50 was more than 100 µM in assay [1] (setting [13]); more than 100 µM in assay [2] (setting [13]); more than 100 µM in assay [5] (setting [13]); more than 100 µM in assay [8] (setting [13]); 1.55 µM in assay [11] (setting [13]). The concentration for half-maximal inhibition (IC50) in assay [3] is 0.02 µM; in assay [10] (Homo sapiens, MCF7, read-out: MCF-7 LIF IC50), 0.08 µM. The “actin / alpha-smooth muscle mediated cytoskeletal disruption of fibroblast” value in [4] is recorded as “cytoskeletal disruption”. Also, the antitumor activity entry in [6] (5 mg/kg (5 days per week), 4 weeks, intraperitoneally) was “potent antitumor activity”. The “apoptosis in xenograft tumors” value in assay [6] (IGR-OV1 xenograft tumors, FIG. 8) was “induced apoptosis dose dependently”. The tumor growth entry in assay [6] (ovarian cancer model) was “significantly reduced”. For the same molecule, the “STAT3 phosphorylation in tumors” value in assay [6] (treated vs. control) is given as “reduced”. In addition, in assay [9], the “apoptosis, p53, MDM2, LIF mediated STAT3 phosphorylation (immunohistochemistry)” value is “induce apoptosis and restore p53 by inhibiting MDM2 and LIF mediated STAT3 phosphorylation”. Besides, the “vulnerability of LIF overexpressing cells to cell death” value in [10] (LIF-overexpressing vs. unmodified MCF-7, in words) is on record as “more vulnerable to cell death”.

As usually defined, the GI50 is the concentration giving 50% growth inhibition. As a reminder, the IC50 is the concentration needed to halve the response being measured.
